Here are results for 30 compounds from ChEMBL document CHEMBL1139339, “Alantrypinone and its derivatives: synthesis and antagonist activity toward insect GABA receptors” (2009).

The source made the active and inactive calls. No cut-off for these calls is given here.

The test system of the first assay is Musca domestica. Put plainly: Displacement of [3H]EBOB from housefly GABA receptor. (In general: In a radioligand displacement assay an active substance lowers the binding of a labelled ligand.)
As for `CC(C)C[C@@]12NC(=O)[C@H](C[C@@]13C(=O)Nc1ccccc13)n1c2nc2ccccc2c1=O` (racemic), the result was Active.

Regarding `CC(C)C[C@@]12NC(=O)[C@H](C[C@]13C(=O)Nc1ccccc13)n1c2nc2ccccc2c1=O` (racemic), the result was Active.

Turning to `CC(C)[C@@]12NC(=O)[C@H](C[C@@]13C(=O)Nc1ccccc13)n1c2nc2ccccc2c1=O` (racemic), the outcome was Active.

For the compound `CC(C)[C@@]12NC(=O)[C@H](C[C@]13C(=O)Nc1ccccc13)n1c2nc2ccccc2c1=O` (racemic), the result was Active.

As for `CN1C(=O)[C@@H]2C[C@@]3(C(=O)N(Cc4ccccc4)c4ccccc43)[C@]1(C)c1nc3ccccc3c(=O)n12` (racemic), the result was Active.

`CN1C(=O)[C@@H]2C[C@]3(C(=O)N(Cc4ccccc4)c4ccccc43)[C@]1(C)c1nc3ccccc3c(=O)n12` (racemic): the result was Active.

Turning to `CN1C(=O)[C@@H]2C[C@]3(C(=O)Nc4ccccc43)[C@]1(C)c1nc3ccccc3c(=O)n12` (racemic), the result was Active.

With `CN1C(=O)[C@@H]2[C@H]3C(=O)N(c4ccccc4)C(=O)[C@H]3[C@]1(C)c1nc3ccccc3c(=O)n12` (racemic), the outcome was Active.

As to `CN1C(=O)[C@@]2(C[C@H]3C(=O)N(C)[C@@]2(C)c2nc4ccccc4c(=O)n23)c2ccccc21` (racemic), the outcome was Active.

On to `CN1C(=O)[C@@]2(C[C@H]3C(=O)N[C@@]2(C)c2nc4ccccc4c(=O)n23)c2ccccc21` (racemic), for which the outcome was Active.

As for `CN1C(=O)[C@]2(C[C@H]3C(=O)N(C)[C@@]2(C)c2nc4ccccc4c(=O)n23)c2ccccc21` (racemic), the outcome was Active.

For the compound `CN1C(=O)[C@]2(C[C@H]3C(=O)N[C@@]2(C)c2nc4ccccc4c(=O)n23)c2ccccc21` (racemic), the result was Active.

In the case of `C[C@@]12NC(=O)[C@H](C[C@@]13C(=O)N(Cc1ccccc1)c1ccccc13)n1c2nc2ccccc2c1=O` (racemic), the outcome was Active.

Take `C[C@@]12NC(=O)[C@H](C[C@@]13C(=O)Nc1ccc(Cl)cc13)n1c2nc2ccc(Cl)cc2c1=O` (racemic): the result was Active.

Consider `C[C@@]12NC(=O)[C@H](C[C@@]13C(=O)Nc1ccc(Cl)cc13)n1c2nc2ccccc2c1=O` (racemic), for which the outcome was Active.

Turning to `C[C@@]12NC(=O)[C@H](C[C@@]13C(=O)Nc1ccccc13)n1c2nc2cc(Cl)ccc2c1=O` (racemic), the outcome was Active.

Consider `C[C@@]12NC(=O)[C@H](C[C@@]13C(=O)Nc1ccccc13)n1c2nc2ccc(Cl)cc2c1=O` (racemic), for which the result was Active.

Take `C[C@@]12NC(=O)[C@H](C[C@@]13C(=O)Nc1ccccc13)n1c2nc2ccc(F)cc2c1=O` (racemic): the outcome was Active.

On to `C[C@@]12NC(=O)[C@H](C[C@@]13C(=O)Nc1ccccc13)n1c2nc2ccccc2c1=O` (racemic), for which the result was Active.

`C[C@@]12NC(=O)[C@H](C[C@]13C(=O)N(Cc1ccccc1)c1ccccc13)n1c2nc2ccccc2c1=O` (racemic): the result was Active.

Consider `C[C@@]12NC(=O)[C@H](C[C@]13C(=O)Nc1ccc(Cl)cc13)n1c2nc2ccc(Cl)cc2c1=O` (racemic), for which the outcome was Active.

For `C[C@@]12NC(=O)[C@H](C[C@]13C(=O)Nc1ccc(Cl)cc13)n1c2nc2ccccc2c1=O` (racemic), the outcome was Active.

In the case of `C[C@@]12NC(=O)[C@H](C[C@]13C(=O)Nc1ccccc13)n1c2nc2cc(Cl)ccc2c1=O` (racemic), the result was Active.

On to `C[C@@]12NC(=O)[C@H](C[C@]13C(=O)Nc1ccccc13)n1c2nc2ccc(Cl)cc2c1=O` (racemic), for which the outcome was Active.

For `C[C@@]12NC(=O)[C@H](C[C@]13C(=O)Nc1ccccc13)n1c2nc2ccc(F)cc2c1=O` (racemic), the result was Active.

Turning to `C[C@@]12NC(=O)[C@H](C[C@]13C(=O)Nc1ccccc13)n1c2nc2ccccc2c1=O` (racemic), the result was Active.

With `C[C@@]12NC(=O)[C@H]([C@H]3C(=O)N(c4ccccc4)C(=O)[C@H]31)n1c2nc2ccccc2c1=O` (racemic), the outcome was Active.

In the case of `O=C1N[C@@]2(Cc3ccccc3)c3nc4ccccc4c(=O)n3[C@H]1C[C@@]21C(=O)Nc2ccccc21` (racemic), the result was Active.

As for `O=C1N[C@@]2(Cc3ccccc3)c3nc4ccccc4c(=O)n3[C@H]1C[C@]21C(=O)Nc2ccccc21` (racemic), the result was Active.

Another assay deals with Neuron. Put plainly: Inhibition of GABA-induced inward current in Periplaneta americana L neuron at 10 uM for 5 min by whole-cell patch clamp method. Format: functional. (In general: In patch-clamp work, channel activity is measured electrically.)
Consider `C[C@@]12NC(=O)[C@H](C[C@]13C(=O)Nc1ccccc13)n1c2nc2ccccc2c1=O`, for which 10 µM produced 90.3% inhibition.
